In ChEMBL document CHEMBL2406925, “Confirmation of quinolone-induced formation of gyrase-DNA conjugates using AFM” (Bioorg Med Chem Lett, 2013):
Activity calls are given as the source filed them. The calls are words filed in the database; no cut-off is given here.

Columns and labels:
Escherichia coli [1] = experiment: Induction of Escherichia coli DNA gyrase-mediated pBR322 DNA cleavage at 5 to 20 uM after 30 mins by agarose gel electrophoresis
Escherichia coli [2] = experiment: Stabilization of reversible Escherichia coli DNA gyrase-pBR322 DNA complex at 20 uM after 15 mins by AFM image analysis

With `CCn1cc(C(=O)O)c(=O)c2cc(F)c(N3CCNCC3)cc21` the Activity (Escherichia coli [1]) was “Active” and the Activity (Escherichia coli [2]) was “Active”.
